Values of other authors, collected in patent US20080182860A1, “Pyrimidine Compounds as Purine Receptor Antagonist” (VERNALIS (R&D) LTD., priority 2004, published 2008).

Assays:
Parkinsonian patients = settings: 150 mg/day slow release oral

In the case of `CCCn1c(=O)c2c(nc(/C=C/c3ccc(OC)c(OC)c3)n2C)n(CCC)c1=O` [KF 17837, (E)-8-(3,4-dimethoxystyryl)-1,3-dipropyl-7-methylxanthine], the “anticataleptic effects of a subthreshold dose of L-DOPA plus benserazide” value (adenosine A2A receptor; in vivo) is given as “potentiated”, the “catalepsy induced by haloperidol and reserpine” value (adenosine A2A receptor; in vivo) is given as “reduced” and the “cataleptic responses induced by intracerebroventricular CGS 21680” value (adenosine A2A receptor; oral administration) is given as “significantly ameliorated”.
In the case of `Cn1c(=O)c2[nH]cnc2n(C)c1=O` [Theophylline, 1,3-dimethylxanthine], the serum theophylline levels (Parkinsonian patients; after one week, 15 Parkinsonian patients) is listed as 4.44 mg/L and the “mean objective disability scores” value (Parkinsonian patients; up to 12 weeks) is listed as “significant improvements”.
